Results as given in patent US20040023295A1, “Methods and systems for analyzing complex biological systems” (priority 2001, published 2004).
Entries after “also recorded” stand apart in the source; their conditions may differ.

Tests used:
[1] = tested on: Arabidopsis thaliana plants; assay: Phenotypic analysis of herbicide-treated Arabidopsis plants (SOA1); format: in vivo; details: for characteristic symptoms (morphological phenotype): herbicide-treated Arabidopsis; for Dev. leafWidth: numeric values standardized to the average response for the mock treated tissues; for Dev. leafCurling / Dev. leafTwisting / Dev. matureLeafAnthocyanins / Dev. matureLeafChlorosis / Dev. matureLeafNecrosis / Dev. newLeafAnthocyanins / Dev. newLeafChlorosis / Dev. newLeafNecrosis / Dev. pointedLeaves: standardized to mock treated; for Symptom Class: three-week-old Arabidopsis sprayed with herbicide, phenotype classes of FIG. 12; for Dev. tMic: time for full range of symptoms at MIC, coded score
[2] = tested on: Arabidopsis thaliana; assay: Biochemical (metabolite) profiling by LC-MS and GC-MS of sprayed Arabidopsis (MOA1); details: for stress related (commonly regulated) metabolites: within one hour after spraying
[3] = tested on: Arabidopsis thaliana; assay: Gene expression profiling of sprayed Arabidopsis (MOA1); format: in vivo; details: for No. of Lethal Genes Altered: regulated genes identified as essential genes in internal database
[4] = tested on: Saccharomyces cerevisiae wild type strain BY4743; assay: Yeast azole drug experiment AF1: metabolite analysis (GC-MS, LC-MS); format: cell-based
[5] = tested on: Arabidopsis thaliana; assay: Phenotypic profiling of Arabidopsis sprayed with unknown and commercial herbicides (MOA1); format: in vivo; details: Ward's method
[6] = tested on: Magnaporthe grisea; format: cell-based
[7] = 1 hr, p < 0.5, arrays containing 22,000 Arabidopsis genes
[8] = early time points (20 min, 1 hour)

CP(=O)(O)CCC(N)C(=O)O (stereo not shown) [Glufosinate]
characteristic symptoms (morphological phenotype) [1]: Chlorosis and leaf curling
Dev. leafWidth [1]: −2
Dev. leafCurling [1]: 2
Dev. leafTwisting [1]: 1
Dev. matureLeafAnthocyanins [1]: 0
Dev. matureLeafChlorosis [1]: 3
Dev. matureLeafNecrosis [1]: 0
Dev. newLeafAnthocyanins [1]: 0
Dev. newLeafChlorosis [1]: 3
Dev. newLeafNecrosis [1]: 0
Dev. pointedLeaves [1]: 1
Symptom Class [1]: 3
Dev. tMic [1]: 1
stress related (commonly regulated) metabolites [2]: Only a few, if any
Regulated Genes: Down [3, 7]: 54
No. of Lethal Genes Altered [3]: 10

CNc1cnn(-c2cccc(C(F)(F)F)c2)c(=O)c1Cl [Norflurazon]
stress related (commonly regulated) metabolites [2]: Only a few, if any

c1cc[n+]2c(c1)-c1cccc[n+]1CC2 [Diquat]
characteristic symptoms (morphological phenotype) [1]: rapid and widespread leaf necrosis
Dev. leafWidth [1]: −2
Dev. leafCurling [1]: 2
Dev. leafTwisting [1]: 0
Dev. matureLeafAnthocyanins [1]: 0
Dev. matureLeafChlorosis [1]: 1
Dev. matureLeafNecrosis [1]: 4
Dev. newLeafAnthocyanins [1]: 0
Dev. newLeafChlorosis [1]: 1
Dev. newLeafNecrosis [1]: 4
Dev. pointedLeaves [1]: 1
Symptom Class [1]: 7
Dev. tMic [1]: 2

C[n+]1ccc(-c2cc[n+](C)cc2)cc1 [Paraquat]
characteristic symptoms (morphological phenotype) [1]: rapid and widespread leaf necrosis
Dev. leafWidth [1]: −1
Dev. leafCurling [1]: 2
Dev. leafTwisting [1]: 0
Dev. matureLeafAnthocyanins [1]: 0
Dev. matureLeafChlorosis [1]: 1
Dev. matureLeafNecrosis [1]: 4
Dev. newLeafAnthocyanins [1]: 0
Dev. newLeafChlorosis [1]: 1
Dev. newLeafNecrosis [1]: 4
Dev. pointedLeaves [1]: 1
Dev. tMic [1]: 2

COC(=O)NS(=O)(=O)c1ccc(N)cc1 [Asulam]
No. of Lethal Genes Altered [3]: 5

O=C(O)COc1ccc(Cl)cc1Cl [2,4-D]
Dev. leafWidth [1]: −1
Dev. leafCurling [1]: 1
Dev. leafTwisting [1]: 2
Dev. matureLeafAnthocyanins [1]: 1
Dev. matureLeafChlorosis [1]: 2
Dev. matureLeafNecrosis [1]: 0
Dev. newLeafAnthocyanins [1]: 0
Dev. newLeafChlorosis [1]: 1
Dev. newLeafNecrosis [1]: 0
Dev. pointedLeaves [1]: 0
Symptom Class [1]: 5
Dev. tMic [1]: 2

CC[C@@H]([C@H](C)O)n1ncn(-c2ccc(N3CCN(c4ccc(OC[C@@H]5CO[C@@](Cn6cncn6)(c6ccc(F)cc6F)C5)cc4)CC3)cc2)c1=O [Posaconazole]
Fold Change: 4-aminobenzoic acid ([4]; platform nLC): 0

CC(C)C1(C)N=C(c2ncccc2C(=O)O)NC1=O (stereo not shown) [Imazapyr]
characteristic symptoms (morphological phenotype) [1]: anthocyanin accumulation in the older leaves accompanied by chlorosis of the newly emerging leaves
stress related (commonly regulated) metabolites [2]: Only a few, if any

O=C(O)c1cc(Oc2ccc(C(F)(F)F)cc2Cl)ccc1[N+](=O)[O-] [Acifluorfen]
characteristic symptoms (morphological phenotype) [1]: Necrotic leaf flecks

CCSC(=O)N(CC(C)C)CC(C)C [Butylate]
phenotype / hierarchical clustering of the eleven phenotypic characteristics [5]: neither showed a strong herbicidal phenotype
stress related (commonly regulated) metabolites [2]: neither butylate nor chlorpropham treatment resulted in many changes

CN(C)C(=O)Nc1ccc(Cl)c(Cl)c1 [Diuron]
characteristic symptoms (morphological phenotype) [1]: rapid and widespread leaf necrosis
Dev. leafWidth [1]: −2
Dev. leafCurling [1]: 1
Dev. leafTwisting [1]: 0
Dev. matureLeafAnthocyanins [1]: 0
Dev. matureLeafChlorosis [1]: 2
Dev. matureLeafNecrosis [1]: 4
Dev. newLeafAnthocyanins [1]: 0
Dev. newLeafChlorosis [1]: 2
Dev. newLeafNecrosis [1]: 4
Dev. pointedLeaves [1]: 1
Symptom Class [1]: 7
Dev. tMic [1]: 1

Nc1nc[nH]n1 [Amitrole]
characteristic symptoms (morphological phenotype) [1]: leaf bleaching and leaf enlargement
phenotype / hierarchical clustering of the eleven phenotypic characteristics [5]: exhibited chlorosis and not true bleaching

COc1nc(C)nc(NC(=O)NS(=O)(=O)c2ccccc2Cl)n1 [Chlorsulfuron]
characteristic symptoms (morphological phenotype) [1]: anthocyanin accumulation in the older leaves accompanied by chlorosis of the newly emerging leaves
No. of Lethal Genes Altered [3]: 8

O=C(O)c1ccccc1C(=O)Nc1cccc2ccccc12 [Naptalam]
Regulated Genes: Down [3, 7]: 47
Regulated Genes: Up [3, 7]: 50
No. of Lethal Genes Altered [3]: 3

CCc1cnc(C2=NC(C)(C(C)C)C(=O)N2)c(C(=O)O)c1 (stereo not shown) [Imazethapyr]
characteristic symptoms (morphological phenotype) [1]: anthocyanin accumulation in the older leaves accompanied by chlorosis of the newly emerging leaves

O=C(O)CNCP(=O)(O)O [Glyphosate]
characteristic symptoms (morphological phenotype) [1]: anthocyanin accumulation in the older leaves accompanied by chlorosis of the newly emerging leaves
Dev. leafWidth [1]: 0
Dev. leafCurling [1]: 0
Dev. leafTwisting [1]: 0
Dev. matureLeafAnthocyanins [1]: 3
Dev. matureLeafChlorosis [1]: 1
Dev. matureLeafNecrosis [1]: 3
Dev. newLeafAnthocyanins [1]: 1
Dev. newLeafChlorosis [1]: 2
Dev. newLeafNecrosis [1]: 0
Dev. pointedLeaves [1]: 1
Symptom Class [1]: 4
Dev. tMic [1]: 2
growth of M. grisea with ammonium or glutamine as nitrogen source ([6]; 250 μg/ml): Little growth defect
growth of M. grisea with nitrate or glutamate as nitrogen source ([6]; 250 μg/ml): inhibited growth
growth of M. grisea with nitrite as the sole nitrogen source ([6]; 250 μg/ml): inhibited growth
growth results for Tiers 3 and 4 as compared to Unknown 4 ([6]; 250 μg/ml): nearly identical
growth inhibition of M. grisea and its remediation ([6]; 1.0 mg/ml): remediated by inclusion of aromatic amino acids
tyrosine level relative to the control [2, 8]: decreased relative to the control

CSc1nnc(C(C)(C)C)c(=O)n1N [Metribuzin]
characteristic symptoms (morphological phenotype) [1]: rapid and widespread leaf necrosis

CS(=O)(=O)c1cc(C(F)(F)F)ccc1C(=O)c1cnoc1C1CC1 [Isoxaflutole]
Alpha-tocopherol level relative to the control ([2]; early time points): not significantly changed
phenylalanine level relative to the control [2, 8]: up-regulated; also recorded: began to accumulate relative to the control
tyrosine level relative to the control [2, 8]: up-regulated; also recorded: began to accumulate relative to the control
alterations in the expression of genes involved in the homogentisate biosynthetic pathway ([3]; MOA1, 1 hr): not observed
No. of Lethal Genes Altered [3]: 15

CCNc1nc(Cl)nc(NC(C)C)n1 [Atrazine]
characteristic symptoms (morphological phenotype) [1]: rapid and widespread leaf necrosis

COC(=O)c1cc(Oc2ccc(Cl)cc2Cl)ccc1[N+](=O)[O-] [Bifenox]
characteristic symptoms (morphological phenotype) [1]: Necrotic leaf flecks

CC(C)N1C(=O)c2ccccc2NS1(=O)=O [Bentazon]
characteristic symptoms (morphological phenotype) [1]: rapid and widespread leaf necrosis

OC(Cn1cncn1)(Cn1cncn1)c1ccc(F)cc1F [Fluconazole]
Fold Change campesterol ([4]; GC): 0
Fold Change desmosterol ([4]; GC): 0
Fold Change octadecanoic acid ([4]; GC): 0.082
Fold Change 4-methylcatechol ([4]; nLC): 0
Fold Change 5hydroxyL-tryptophan ([4]; nLC): 0
Fold Change 6-benzylaminopurine ([4]; nLC): 0
Fold Change NacetylD-glucosamine ([4]; nLC): 0
Fold Change NacetylL-ornithine ([4]; nLC): 0
Fold Change abscisic acid ([4]; nLC): 0
Fold Change adenine ([4]; nLC): 0
Fold Change adenosine ([4]; nLC): 0
Fold Change anthranilic acid ([4]; nLC): 0
Fold Change argininosuccinate ([4]; nLC): 0
Fold Change benzoic acid ([4]; nLC): 0
Fold Change catechol ([4]; nLC): 0
Fold Change cinnamic acid ([4]; nLC): 0
Fold Change citricanoic/itaconi ([4]; nLC): 0
Fold Change citrulline ([4]; nLC): 0
Fold Change coumaric acid ([4]; nLC): 0
Fold Change cytosine ([4]; nLC): 0
Fold Change diaminopimelic acid ([4]; nLC): 0
Fold Change dihydrofolic acid ([4]; nLC): 0
Fold Change estrone ([4]; nLC): 0
Fold Change farnesol ([4]; nLC): 0
Fold Change folic acid ([4]; nLC): 0
Fold Change gibberellic ([4]; nLC): 0
Fold Change guanine ([4]; nLC): 0
Fold Change histidine ([4]; nLC): 0
Fold Change homogentisic/uric ([4]; nLC): 0
Fold Change hydrocortisone ([4]; nLC): 0
Fold Change indole3-pyruvic acid ([4]; nLC): 0
Fold Change jasmonic acid ([4]; nLC): 0
Fold Change kinetin ([4]; nLC): 0
Fold Change luteolin ([4]; nLC): 0
Fold Change malonic acid ([4]; nLC): 0
Fold Change methionine ([4]; nLC): 0
Fold Change orotic acid ([4]; nLC): 0
Fold Change phenylpyruvic acid ([4]; nLC): 0
Fold Change phosphoenolpyruvate ([4]; nLC): 0
Fold Change pinitol ([4]; nLC): 0
Fold Change porphobilinogen ([4]; nLC): 0
Fold Change retinoic acid ([4]; nLC): 0
Fold Change salicylic/HObenzoic ([4]; nLC): 0
Fold Change shikimic acid ([4]; nLC): 0
Fold Change sinapinic acid ([4]; nLC): 0
Fold Change thymine ([4]; nLC): 0
Fold Change urocanic acid ([4]; nLC): 0
Fold Change xanthosine-DiH2O ([4]; nLC): 0
Fold Change zeatin ([4]; nLC): 0
Fold Change 4-aminobenzoic acid ([4]; pLC): 0
Fold Change 4-methylcatechol ([4]; pLC): 0
Fold Change 5hydroxyL-tryptophan ([4]; pLC): 0
Fold Change 6benzylaminopurine ([4]; pLC): 0
Fold Change NacetylD-glucosamine ([4]; pLC): 0
Fold Change NacetylL-glutamate ([4]; pLC): 0
Fold Change abscisic acid ([4]; pLC): 0
Fold Change adenosine ([4]; pLC): 0
Fold Change allantoic acid ([4]; pLC): 0
Fold Change anthranilic acid ([4]; pLC): 0
Fold Change argininosuccinate ([4]; pLC): 0
Fold Change biotin ([4]; pLC): 0
Fold Change caffeine ([4]; pLC): 0
Fold Change citric acid TME ([4]; pLC): 0
Fold Change cytidine ([4]; pLC): 0
Fold Change cytosine ([4]; pLC): 0
Fold Change diaminopimelic acid ([4]; pLC): 0
Fold Change dihydrofolic acid ([4]; pLC): 0
Fold Change dipicolinic acid ([4]; pLC): 0
Fold Change folic acid ([4]; pLC): 0
Fold Change glucosamine ([4]; pLC): 0
Fold Change glucosamine6PO4 ([4]; pLC): 0
Fold Change histidine ([4]; pLC): 0
Fold Change hydrocortisone ([4]; pLC): 0
Fold Change itaconic acid dimes ([4]; pLC): 0
Fold Change kinetin ([4]; pLC): 0
Fold Change luteolin ([4]; pLC): 0
Fold Change niacinamide ([4]; pLC): 0
Fold Change nopaline ([4]; pLC): 0
Fold Change phosphoenolpyruvate ([4]; pLC): 0
Fold Change progesterone ([4]; pLC): 0
Fold Change riboflavin ([4]; pLC): 0
Fold Change sugar-phosphate ([4]; pLC): 0
Fold Change thiamine ([4]; pLC): 0
Fold Change thymine ([4]; pLC): 0
Fold Change tryptophan ([4]; pLC): 0
Fold Change uric acid ([4]; pLC): 0
Fold Change urocanic acid ([4]; pLC): 0
Fold Change xanthosine (diH2O) ([4]; pLC): 0
Fold Change zeatin ([4]; pLC): 0
